Laboratory results reported in patent publication US20260069606A1, “Oxidative Stress and Diabetes Treatment with Cobinamide” (The Regents of the University of California, priority 2022, published 2026).

Legend:
[1] = Plasma cobinamide concentration in mice given cobinamide in drinking water; conditions: discussion summary
Procedure: Male C57BL/6NHsd mice (20 weeks old) were housed three to four animals per cage in a temperature-controlled environment with a 12-h light/dark cycle and fed standard rodent chow with ad libitum access to food and water. After one week of acclimatization, mice weighing 30±3 g were injected intraperitoneally for five consecutive days with either saline (n=20) or 50 mg/kg streptozotocin (n=20) 69. […] The 16 diabetic mice and a corresponding number of the saline-injected, non-diabetic mice were split randomly in half to receive either plain drinking water or histidyl-cobinamide in the drinking water. The four groups of animals are referred to as: diabetic vehicle (D-Veh); diabetic, cobinamide-treated (D-Cbi); non-diabetic, vehicle (ND-Veh); and non-diabetic, cobinamide-treated (ND-Cbi). The histidyl-cobinamide concentration was 1 mM for the ND-Cbi mice, but because the diabetic mice drank more than the non-diabetic mice, the cobinamide concentration for the D-Cbi mice was decreased accordingly. The water was replenished twice a week.
After three months of treatment, the mice were weighed, fasted for 6 h, and then underwent an intraperitoneal glucose tolerance test (IPGTT) using 2 g/kg of a 20% glucose solution. Blood glucose concentrations were measured just before the glucose injection (time 0, fasting specimen) and at 15, 30, 60, and 120 min following the injection. […] Two days later, the mice were euthanized by inducing deep anesthesia with 200 mg/kg ketamine and 40 mg/kg xylazine administered by intraperitoneal injection, followed by exsanguination via an open cardiac puncture.
Type I diabetic mice were generated using streptozotocin, and then provided cobinamide in the drinking water for three months.

[2] = tested on: mouse model of human familial aortic aneurysm; conditions: 1 mM cobinamide in drinking water; cited from earlier work
H9c2 cells = assay: Mitochondrial membrane potential, JC-1 red to green fluorescence; assay type: cell-based, rat
Procedure: FIGS. 3A-3H. […] FIGS. 3A-3B. […] FIG. 3A. […] FIG. 3B. […] FIGS. 3C-3D. […] FIG. 3D. […] FIGS. 3E-3F. […] FIG. 3E. Representative blots are shown. […] FIG. 3F. […] FIG. 3G. […] FIG. 3H.
The cells were then washed once with PBS, placed back in the DMEM experimental medium, and incubated with the indicated drugs for 30 min. At the end of the incubation period, nuclei of both the MitoSOX Red- and JC-1-treated cells were stained with […] 4′,6-diamidino-2-phenyl-indole (DAPI) for 3 min, washed once with PBS, and returned to the DMEM experimental medium. The cover slips were removed from the wells, mounted in the DMEM experimental medium, and red (MitoSOX Red and JC-1 aggregates), green (JC-1 monomers), and blue (DAPI) fluorescence intensity was assessed using a Keyence BZ-X700 fluorescence microscope at the following paired excitation/emission wavelengths, respectively: 560/630, 490/525, and 360/460 nm.
Increased mitochondrial O2·^− by rotenone would be expected to reduce the mitochondrial membrane potential (ΔΨm), due in part to activation of uncoupling proteins^39. […] Rotenone caused an almost complete loss of red fluorescence and a striking increase in green fluorescence in the cells, indicating a marked decrease in ΔΨm (FIGS. 3C-3D).

hearts of diabetic mice = assay: Lipid and protein oxidation and DNA damage in hearts of diabetic mice; assay type: in vivo
Procedure: FIGS. 4A-4K. Cobinamide Rescues Flies from Paraquat Poisoning and Prevents Abnormal Lipid and Protein Oxidation, DNA Damage, and Fibrosis in the Hearts of Diabetic Mice. FIG. 4A. At time zero, 10 fruit flies (D. melanogaster) were transferred to vials with food to which either phosphate-buffered saline (PBS), 0.8 mM of the indicated drugs, 20 mM paraquat (PQ), or 20 mM paraquat with 0.8 mM of the indicated drugs had been added. The number of live flies was counted each day for 7 d. The experiment was repeated seven times, for a total of 70 flies per condition. The percent surviving flies was calculated; error bars represent standard deviations and are shown in one direction only for sake of clarity. FIGS. 4B-4K. […] The amount of 8-isoprostane (FIG. 4B) was measured by ELISA, protein oxidation (FIGS. 4C-4D) was assessed by immunoblotting, and nitrotyrosine content (FIGS. 4E-4F) was assessed by immunohistochemistry. DNA damage was assessed by 8-OH-deoxyguanosine staining (FIGS. 4G-4H) and a long amplicon qPCR-based assay (FIG. 4I). Cardiac fibrosis (FIGS. 4J-4K) was assessed by Mallory trichrome staining, which stains collagen blue. […] For Panels C, D, and I, frozen heart samples were selected randomly from each of the four groups and were analyzed. For Panel D, blots were analyzed by densitometric scanning using Li-Cor Odyssey software, with the density of each lane normalized to the actin band. […]

[3] = Reaction with superoxide, spin trap DMPO / EPR; assay type: biochemical
Procedure: The reaction of cobinamide with O2·^− was studied in two different systems, generating O2·^− using a hypoxanthine-xanthine oxidase system.
The second system contained 1 mM hypoxanthine, 0.04 U xanthine oxidase, and 0.26 M DMPO in phosphate-buffered saline, pH 7.4 (PBS). Samples were transferred to a capillary tube, and introduced into the EPR cavity of a Magnettech MiniScope MS5000. DMPO-OH signals arising from the DMPO-OOH spin adduct were measured at 37° C. for 5 min. The area under the DMPO-OOH peak was calculated using Origin 2022b software. To avoid variability across runs, signal amplitudes were normalized to the intensity of simultaneously recorded Mn reference signals originating from ZnS:Mn^2+ fixed within the EPR cavity.
In both systems, the experiments were conducted in the absence and presence of the indicated concentrations of Cbi(III) or Chi(II) 65.
The reaction of Chi(III) with O2·^− was also measured using the spin-trap DMPO, which yields a distinctive electron paramagnetic resonance (EPR) spectrum on reacting with O2·^−. Sub-micromolar concentrations of cobinamide reduced the EPR signal in a dose-dependent fashion, yielding an apparent rate constant of 7.5×10^7 M^−1 s^−1 for the reaction of Chi(III) with O2·^− (FIG. 1B).

C/C1=C2/[N-][C@H]([C@H](CC(N)=O)[C@@]2(C)CCC(=O)NC[C@@H](C)O)[C@]2(C)N=C(/C(C)=C3N=C(/C=C4N=C1[C@@H](CCC(N)=O)C\4(C)C)[C@@H](CCC(N)=O)[C@]\3(C)CC(N)=O)[C@@H](CCC(N)=O)[C@]2(C)CC(N)=O.[Co+3] [cobinamide, aquohydroxo-cobinamide]
Concentration in the plasma of mice that received cobinamide in drinking water [1]: 100 to 500 nM | Aortic oxidative stress, pathological changes and aneurysm formation [2]: blocked the increase in oxidative stress and pathological changes, and prevented aneurysm formation | Clinical or laboratory evidence of toxicity [2]: no clinical or laboratory evidence of toxicity | JC-1 red to green fluorescence ratio (ΔΨm) in rotenone-treated cells (H9c2 cells; H9c2, 5 μM rotenone 30 min, drugs at 2.5 μM): restored the ratio of red to green fluorescence | JC-1 red to green fluorescence ratio, drug alone (H9c2 cells; H9c2, vehicle-treated cells without rotenone, 2.5 μM): no change | All markers of oxidative stress and DNA damage in hearts of diabetic mice (hearts of diabetic mice; 8-isoprostane, protein carbonylation, nitrotyrosine, 8-OH-deoxyguanosine, long-amplicon PCR, three months histidyl-cobinamide in drinking water): significantly reduced all markers of oxidative stress and DNA damage to values similar to those found in the non-diabetic mice | Tyrosine nitration in hearts of diabetic mice (hearts of diabetic mice; nitrotyrosine immunohistochemistry): reduced | Apparent rate constant, reaction with O2·^− [3]: 7.5e+07 M⁻¹ s⁻¹
